Experiments:
SSTR2 = target: T1, SSTR2 (Homo sapiens, UniProt P30874); assay: Binding affinity using cell membrane from cells expressing SSTR subtypes
T1 construct: expressed in transfected cells

human SSTR4 [1] = target: T2, human SSTR4 (Homo sapiens, UniProt P31391); assay: Binding affinity using cell membrane from human SSTR4-expressing Chem-1 cells, [125I] Tyr11-Somatostatin 14; set-up: expressed in transfected cells; settings: 0.1 nmol/L [125I] Tyr11-Somatostatin 14, 2 hours at 25° C.
Description: Binding affinity evaluation using cell membrane from human SSTR4-expressing cells
From Chem-1 cells forcibly expressing human SSTR4, cell membrane was prepared by using Hepes Buffer. A reaction solution consisting of the prepared cell membrane, 0.1 nmol/L [^125I] Tyr11-Somatostatin 14, and a test compound was prepared, and incubated for 2 hours at 25° C. The cell membrane after incubation was filtered, and washed. After dried, the filter was immersed in a scintillator, its radioactivity was measured with a scintillation counter. By defining the difference in radioactivity between the substance not containing a test compound and the substance containing 1 μmol/L Somatostatin 14 as the specific binding amount, inhibitory rates of test compounds were calculated. Based on IC50 of the test compound calculated from the inhibition curve, the concentration of [^125I] Tyr11-Somatostatin 14, and Kd of Somatostatin 14, Ki of the test compound was calculated.

human SSTR4 [2] = target: T2, human SSTR4; assay: Evaluation of agonist activities using human SSTR4-stably expressing cells (aequorin luminescence); assay type: cell-based; set-up: expressed in transfected cells; host or cells: HEK293
Outline: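 HEK293 cells stably expressing SSTR4, transiently given Gα16 and apoaequorin, were loaded with 0.5 μmol/L coelenterazine H for 4 h at room temperature. After compound addition in Hanks/20 mM Hepes/0.1% BSA, luminescence was read for 90 s. Activity is relative to 1 μmol/L somatostatin as 100%.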

T2 sequence (P31391 whole entry): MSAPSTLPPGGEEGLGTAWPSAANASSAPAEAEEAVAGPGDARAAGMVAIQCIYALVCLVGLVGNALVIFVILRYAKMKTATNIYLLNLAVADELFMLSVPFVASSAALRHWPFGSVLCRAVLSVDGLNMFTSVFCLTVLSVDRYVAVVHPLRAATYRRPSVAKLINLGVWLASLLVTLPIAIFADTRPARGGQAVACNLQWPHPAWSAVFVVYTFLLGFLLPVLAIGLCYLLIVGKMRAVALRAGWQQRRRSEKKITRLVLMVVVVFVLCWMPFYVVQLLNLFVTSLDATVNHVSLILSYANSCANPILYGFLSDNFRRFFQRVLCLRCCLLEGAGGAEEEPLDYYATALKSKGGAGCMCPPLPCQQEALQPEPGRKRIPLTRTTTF
T1 sequence (P30874 whole entry, species assumed): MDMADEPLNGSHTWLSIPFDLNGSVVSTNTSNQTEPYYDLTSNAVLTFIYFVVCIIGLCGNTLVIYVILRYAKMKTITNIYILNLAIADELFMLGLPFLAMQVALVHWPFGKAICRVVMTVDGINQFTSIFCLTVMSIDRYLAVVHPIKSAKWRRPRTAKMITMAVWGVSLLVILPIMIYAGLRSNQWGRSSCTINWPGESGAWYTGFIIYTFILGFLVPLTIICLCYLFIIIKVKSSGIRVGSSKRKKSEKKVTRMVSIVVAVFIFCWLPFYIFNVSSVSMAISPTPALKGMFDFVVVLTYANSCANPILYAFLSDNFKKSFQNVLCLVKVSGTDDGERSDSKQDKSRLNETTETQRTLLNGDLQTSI

Ki (SSTR2): > 5000 nM | Ki (human SSTR4 [1]): 21 nM | SSTR4 agonist activity compared with other compounds (human SSTR4 [2]; Tables 25 to 27): stronger SSTR4 agonist activity | EC50 (human SSTR4 [2]; luminescence signal, 1 μmol/L somatostatin taken as 100%): 2 nM
Compound: CN1CCC[C@H](C(=O)NC(C)(C)c2cc(Cl)ccc2Cl)C1 [Example 21, (3S)—N-[2-(2,5-dichlorophenyl)propane-2-yl]-1-methylpiperidine-3-carboxamide]

— patent US20160221948A1, “NITROGEN-CONTAINING SATURATED HETEROCYCLIC COMPOUND” (SUMITOMO CHEMICAL COMPANY, LIMITED, priority 2013, published 2016)
